These results are taken from ChEMBL document CHEMBL5143565, “Toll-like receptor 7 and 8 imidazoquinoline-based agonist/antagonist pairs” (Bioorg Med Chem Lett, 2022).

As a reminder, the pEC50 is −log10 of the EC50, conventionally taken in molar units.

pEC50: −log10 of the molar value.

One experiment addresses T1, Toll-like receptor 7 (Homo sapiens, UniProt Q9NYK1).
T1 sequence (Q9NYK1 whole entry): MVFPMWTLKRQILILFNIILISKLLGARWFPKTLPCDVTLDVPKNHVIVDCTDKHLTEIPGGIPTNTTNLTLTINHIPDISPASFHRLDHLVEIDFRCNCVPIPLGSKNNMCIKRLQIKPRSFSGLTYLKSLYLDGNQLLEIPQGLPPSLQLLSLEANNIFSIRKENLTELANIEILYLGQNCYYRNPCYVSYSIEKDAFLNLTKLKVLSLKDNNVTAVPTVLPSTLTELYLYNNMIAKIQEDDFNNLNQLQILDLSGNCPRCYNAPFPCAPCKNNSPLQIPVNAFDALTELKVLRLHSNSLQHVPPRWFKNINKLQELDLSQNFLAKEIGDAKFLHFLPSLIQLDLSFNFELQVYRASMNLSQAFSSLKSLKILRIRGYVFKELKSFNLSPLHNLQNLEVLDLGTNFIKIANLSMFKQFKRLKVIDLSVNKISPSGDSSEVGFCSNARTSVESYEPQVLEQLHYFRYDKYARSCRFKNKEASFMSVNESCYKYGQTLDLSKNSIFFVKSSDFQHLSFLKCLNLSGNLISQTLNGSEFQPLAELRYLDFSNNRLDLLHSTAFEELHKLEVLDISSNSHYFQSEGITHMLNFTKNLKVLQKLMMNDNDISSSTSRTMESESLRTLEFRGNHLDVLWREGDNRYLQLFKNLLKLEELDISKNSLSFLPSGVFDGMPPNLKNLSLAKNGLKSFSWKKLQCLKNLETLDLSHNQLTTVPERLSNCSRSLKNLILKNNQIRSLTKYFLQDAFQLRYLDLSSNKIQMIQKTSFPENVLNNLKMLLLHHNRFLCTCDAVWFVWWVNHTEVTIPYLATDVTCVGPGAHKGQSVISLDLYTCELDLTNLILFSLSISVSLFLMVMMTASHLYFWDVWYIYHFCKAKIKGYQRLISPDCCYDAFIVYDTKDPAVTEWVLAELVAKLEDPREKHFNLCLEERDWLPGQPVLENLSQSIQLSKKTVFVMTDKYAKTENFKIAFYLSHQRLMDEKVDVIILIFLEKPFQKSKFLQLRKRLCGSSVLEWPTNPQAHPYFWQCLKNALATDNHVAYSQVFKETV
Kind of experiment: Agonist activity at TLR7 in human HEK-SEAP reporter cell assessed as NF-kappaB activation. The experiment is classed as cell-based.

Another experiment concerns the target T2, Toll-like receptor 8 (Homo sapiens, UniProt Q9NR97).
T2 sequence (Q9NR97 whole entry): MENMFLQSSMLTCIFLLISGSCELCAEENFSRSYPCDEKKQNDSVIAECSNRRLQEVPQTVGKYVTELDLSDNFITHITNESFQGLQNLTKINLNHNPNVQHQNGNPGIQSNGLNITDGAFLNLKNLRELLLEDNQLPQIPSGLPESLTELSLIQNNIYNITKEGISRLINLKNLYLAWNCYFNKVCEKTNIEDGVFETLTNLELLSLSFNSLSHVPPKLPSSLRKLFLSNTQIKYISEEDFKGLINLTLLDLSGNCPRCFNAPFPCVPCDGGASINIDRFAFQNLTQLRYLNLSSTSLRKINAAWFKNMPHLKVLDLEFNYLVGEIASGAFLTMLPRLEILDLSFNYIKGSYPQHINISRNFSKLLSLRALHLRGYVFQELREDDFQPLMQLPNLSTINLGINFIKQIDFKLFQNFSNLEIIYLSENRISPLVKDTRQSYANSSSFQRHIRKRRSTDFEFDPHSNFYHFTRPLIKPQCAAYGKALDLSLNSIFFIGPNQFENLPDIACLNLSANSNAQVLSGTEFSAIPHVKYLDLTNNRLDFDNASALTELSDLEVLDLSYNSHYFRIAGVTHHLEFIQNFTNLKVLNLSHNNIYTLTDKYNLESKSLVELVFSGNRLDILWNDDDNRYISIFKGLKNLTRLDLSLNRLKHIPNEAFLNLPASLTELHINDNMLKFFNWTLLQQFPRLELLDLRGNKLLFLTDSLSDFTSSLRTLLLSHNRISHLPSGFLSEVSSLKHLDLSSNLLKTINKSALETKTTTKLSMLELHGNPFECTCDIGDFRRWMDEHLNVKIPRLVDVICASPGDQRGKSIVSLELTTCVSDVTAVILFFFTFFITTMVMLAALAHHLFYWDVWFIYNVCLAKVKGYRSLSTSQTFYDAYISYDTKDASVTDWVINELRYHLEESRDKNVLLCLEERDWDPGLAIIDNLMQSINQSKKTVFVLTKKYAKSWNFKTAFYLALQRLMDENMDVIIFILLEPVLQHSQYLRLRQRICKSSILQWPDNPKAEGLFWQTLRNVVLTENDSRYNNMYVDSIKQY
Kind of experiment: Agonist activity at TLR8 in human HEK-SEAP reporter cell assessed as NF-kappaB activation. The experiment is classed as cell-based.

Consider `CC(C)Cc1nc2c(N)nc3ccccc3c2n1Cc1ccc(CN)cc1`, for which the pEC50 at Toll-like receptor 7 is 6.68.

As to `COC(=O)c1ccc2c(c1)nc(N)c1nc(CC3CC3)n(CC(C)O)c12` (centres undefined), the pEC50 at Toll-like receptor 7 was 4.88.

As to `CC(O)Cn1c(CC2CC2)nc2c(N)nc3ccccc3c21` (centres undefined), the pEC50 at Toll-like receptor 7 is 6.00.

Consider `CC(C)Cc1nc2c(N)nc3ccccc3c2n1CC(C)O` (centres undefined), for which the pEC50 on Toll-like receptor 8 is 4.57.
